In patent publication US20220348567A1, “NOVEL OXADIAZOLE COMPOUNDS CONTAINING 5- MEMBERED HETEROAROMATIC RING FOR CONTROLLING OR PREVENTING PHYTOPATHOGENIC FUNGI” (PI INDUSTRIES LTD., priority 2019, published 2022):

Legend:
[1] = system: Phakopsora pachyrhizi; experiment: Phakopsora pachyrhizi test in soybean, greenhouse, preventive activity; type: in vivo, Phakopsora pachyrhizi on soybean plants; settings: 24 h, spray one day before inoculation, soybean plants, read-out: control (efficacy, disease severity rating versus untreated control)
Experimental: Compounds were dissolved in 2% dimethyl sulfoxide/acetone and then mixed with water containing emulsifier to the calibrated spray volume of 50 mL. Each spray solution was poured into a spray bottle for further application. To test the preventive activity of the compound, healthy young Soybean plants, raised in the greenhouse, were sprayed with the active compound preparation at the stated application rate inside the spray cabinets using hollow cone nozzles. One day aftertreatment, the plants were inoculated with a conidial suspension containing 2×10^5Phakopsora […]. The inoculated plants were then kept in a greenhouse chamber at 22-24° C. temperature and 80-90% relative humidity for disease expression. A visual assessment of the compound's performance was carried out by rating the disease severity (0-100% scale) on treated plants 3, 7, 10 and 15 days after application. Efficacy (% control) of the compound was calculated by comparing the disease rating in the treatment with the one of the untreated control. The sprayed plants were also assessed for plant damage by recording symptoms like necrosis, chlorosis and stunting.

[2] = system: Parastagonospora nodorum; experiment: Parastagonospora nodorum (PARANO) microtiter growth inhibition assay, OD600; type: cell-based; settings: 18° C., 15-18 days, read-out: control (growth inhibition by OD600)
Experimental: Potato dextrose (PDB) liquid medium (Difco) containing a […] (10^5 spores/ml) spore suspension was prepared. For the inhibition assay, each test compound was solved in dimethyl sulfoxide. 100 μl of the test media-solution was added to a 96-well microtiter plate, consequently, the same volume (100 μl) of spore suspension was added to the well making the final test concentrations and the plate was incubated at 18° C. for 15-18 days. The growth inhibition was evaluated by measuring the OD600. Percent inhibition was calculated with the below formula: I=([…])*100 Where T=treatment, C═control, and B=blank

| Structure (SMILES) | pest or weed control at 500 ppm [1] [%] | inhibition at 300 ppm [2] [%] |
| --- | --- | --- |
| CCOC(=O)Cc1cn(-c2ccc(-c3noc(C(F)(F)F)n3)cc2)cn1 [Compound 1, Ethyl 2-(1-(4-(5-(trifluoromethyl)-1,2,4-oxadiazol-3-yl)phenyl)-1H-imidazol-4-yl)acetate] | ≤ 70 | – |
| COc1ccc(NC(=O)Cc2cn(-c3ccc(-c4noc(C(F)(F)F)n4)cc3)cn2)cc1 [Compound 2, N-(4-methoxyphenyl)-2-(1-(4-(5-(trifluoromethyl)-1,2,4-oxadiazol-3-yl)phenyl)-1H-imidazol-4-yl)acetamide] | ≤ 70 | – |
| O=C(Cc1cn(-c2ccc(-c3noc(C(F)(F)F)n3)cc2)cn1)N1CCCC1 [Compound 3, 1-(pyrrolidin-1-yl)-2-(1-(4-(5-(trifluoromethyl)-1,2,4-oxadiazol-3-yl)phenyl)-1H-imidazol-4-yl)ethan-1-one] | ≤ 70 | ≥ 70 |
| O=C(Cc1cn(-c2ccc(-c3noc(C(F)(F)F)n3)cc2)cn1)NCc1ccccc1 [Compound 4, N-benzyl-2-(1-(4-(5-(trifluoromethyl)-1,2,4-oxadiazol-3-yl)phenyl)-1H-imidazol-4-yl)acetamide] | ≤ 70 | – |
| COc1ccc(CNC(=O)Cc2cn(-c3ccc(-c4noc(C(F)(F)F)n4)cc3)cn2)cc1 [Compound 5, N-(4-methoxybenzyl)-2-(1-(4-(5-(trifluoromethyl)-1,2,4-oxadiazol-3-yl)phenyl)-1H-imidazol-4-yl)acetamide] | ≤ 70 | – |
| O=C(Cc1cn(-c2ccc(-c3noc(C(F)(F)F)n3)cc2)cn1)NCc1ccc(F)cc1 [Compound 6, N-(4-fluorobenzyl)-2-(1-(4-(5-(trifluoromethyl)-1,2,4-oxadiazol-3-yl)phenyl)-1H-imidazol-4-yl)acetamide] | ≤ 70 | ≥ 70 |
| O=C(Cc1cn(-c2ccc(-c3noc(C(F)(F)F)n3)cc2)cn1)NCc1ccccc1F [Compound 7, N-(2-fluorobenzyl)-2-(1-(4-(5-(trifluoromethyl)-1,2,4-oxadiazol-3-yl)phenyl)-1H-imidazol-4-yl)acetamide] | ≤ 70 | – |
| Cc1ccc(NC(=O)Cc2cn(-c3ccc(-c4noc(C(F)(F)F)n4)cc3)cn2)cc1 [Compound 8, N-(p-tolyl)-2-(1-(4-(5-(trifluoromethyl)-1,2,4-oxadiazol-3-yl)phenyl)-1H-imidazol-4-yl)acetamide] | ≤ 70 | – |
| O=C(Cc1cn(-c2ccc(-c3noc(C(F)(F)F)n3)cc2)cn1)Nc1ccc(Cl)cc1 [Compound 9, N-(4-chlorophenyl)-2-(1-(4-(5-(trifluoromethyl)-1,2,4-oxadiazol-3-yl)phenyl)-1H-imidazol-4-yl)acetamide] | ≤ 70 | – |
| O=C(Cc1cn(-c2ccc(-c3noc(C(F)(F)F)n3)cc2)cn1)Nc1cccc(F)c1 [Compound 10, N-(3-fluorophenyl)-2-(1-(4-(5-(trifluoromethyl)-1,2,4-oxadiazol-3-yl)phenyl)-1H-imidazol-4-yl)acetamide] | ≤ 70 | – |
| O=C(Cc1cn(-c2ccc(-c3noc(C(F)(F)F)n3)cc2)cn1)N1CCCCC1 [Compound 11, 1-(piperidin-1-yl)-2-(1-(4-(5-(trifluoromethyl)-1,2,4-oxadiazol-3-yl)phenyl)-1H-imidazol-4-yl)ethan-1-one] | ≤ 70 | – |
| COc1cccc(NC(=O)Cc2cn(-c3ccc(-c4noc(C(F)(F)F)n4)cc3)cn2)c1 [Compound 12, N-(3-methoxyphenyl)-2-(1-(4-(5-(trifluoromethyl)-1,2,4-oxadiazol-3-yl)phenyl)-1H-imidazol-4-yl)acetamide] | ≤ 70 | – |
| O=C(Cc1cn(-c2ccc(-c3noc(C(F)(F)F)n3)cc2)cn1)Nc1cccnc1 [Compound 13, N-(pyridin-3-yl)-2-(1-(4-(5-(trifluoromethyl)-1,2,4-oxadiazol-3-yl)phenyl)-1H-imidazol-4-yl)acetamide] | ≤ 70 | – |
| O=C(Cc1cn(-c2ccc(-c3noc(C(F)(F)F)n3)cc2)cn1)Nc1ccccc1Br [Compound 14, N-(2-bromophenyl)-2-(1-(4-(5-(trifluoromethyl)-1,2,4-oxadiazol-3-yl)phenyl)-1H-imidazol-4-yl)acetamide] | ≤ 70 | – |
| O=C(Cc1cn(-c2ccc(-c3noc(C(F)(F)F)n3)cc2)cn1)Nc1ccccc1 [Compound 15, N-phenyl-2-(1-(4-(5-(trifluoromethyl)-1,2,4-oxadiazol-3-yl)phenyl)-1H-imidazol-4-yl)acetamide] | ≤ 70 | ≥ 70 |
| COc1ccc(C)c(NC(=O)Cc2cn(-c3ccc(-c4noc(C(F)(F)F)n4)cc3)cn2)c1 [Compound 16, N-(5-methoxy-2-methylphenyl)-2-(1-(4-(5-(trifluoromethyl)-1,2,4-oxadiazol-3-yl)phenyl)-1H-imidazol-4-yl)acetamide] | ≤ 70 | ≥ 70 |
| COc1cc(F)ccc1NC(=O)Cc1cn(-c2ccc(-c3noc(C(F)(F)F)n3)cc2)cn1 [Compound 17, N-(4-fluoro-2-methoxyphenyl)-2-(1-(4-(5-(trifluoromethyl)-1,2,4-oxadiazol-3-yl)phenyl)-1H-imidazol-4-yl)acetamide] | ≤ 70 | ≥ 70 |
| Cc1ccccc1S(C)(=O)=NC(=O)c1cnn(-c2ccc(-c3noc(C(F)(F)F)n3)cc2)c1 (centres unmarked) [Compound 19, N-(methyl(oxo)(o-tolyl)-λ^6-sulfaneylidene)-1-(4-(5-(trifluoromethyl)-1,2,4-oxadiazol-3-yl)phenyl)-1H-pyrazole-4-carboxamide] | ≤ 70 | – |
| COc1ccccc1S(C)(=O)=NC(=O)c1cnn(-c2ccc(-c3noc(C(F)(F)F)n3)cc2)c1 (centres unmarked) [Compound 20, N-((2-methoxyphenyl)(methyl)(oxo)-λ^6-sulfaneylidene)-1-(4-(5-(trifluoromethyl)-1,2,4-oxadiazol-3-yl)phenyl)-1H-pyrazole-4-carboxamide] | ≤ 70 | – |
| COc1ccc(S(C)(=O)=NC(=O)c2cnn(-c3ccc(-c4noc(C(F)(F)F)n4)cc3)c2)cc1 (centres unmarked) [Compound 21, N-((4-methoxyphenyl)(methyl)(oxo)-λ^6-sulfaneylidene)-1-(4-(5-(trifluoromethyl)-1,2,4-oxadiazol-3-yl)phenyl)-1H-pyrazole-4-carboxamide] | ≤ 70 | – |
| CS(=O)(=NC(=O)c1cnn(-c2ccc(-c3noc(C(F)(F)F)n3)cc2)c1)c1ccccc1 (centres unmarked) [Compound 22, N-(methyl(oxo)(phenyl)-λ^6-sulfaneylidene)-1-(4-(5-(trifluoromethyl)-1,2,4-oxadiazol-3-yl)phenyl)-1H-pyrazole-4-carboxamide] | ≤ 70 | – |
| CS(=O)(=NC(=O)c1cnn(-c2ccc(-c3noc(C(F)(F)F)n3)cc2)c1)c1cccc(F)c1 (centres unmarked) [Compound 23, N-((3-fluorophenyl)(methyl)(oxo)-λ^6-sulfanylidene)-1-(4-(5-(trifluoromethyl)-1,2,4-oxadiazol-3-yl)phenyl)-1H-pyrazole-4-carboxamide] | ≤ 70 | – |
| Cc1cccc(S(C)(=O)=NC(=O)c2ccn(-c3ccc(-c4noc(C(F)(F)F)n4)cc3)c2)c1 (centres unmarked) [Compound 24, N-(methyl(oxo)(m-tolyl)-λ^6-sulfanylidene)-1-(4-(5-(trifluoromethyl)-1,2,4-oxadiazol-3-yl)phenyl)-1H-pyrrole-3-carboxamide] | – | ≥ 70 |
| COCCS(=O)(=NC(=O)c1ccn(-c2ccc(-c3noc(C(F)(F)F)n3)cc2)c1)c1ccccn1 (centres unmarked) [Compound 25, N-((2-methoxyethyl)(oxo)(pyridin-2-yl)-λ^6-sulfanylidene)-1-(4-(5-(trifluoromethyl)-1,2,4-oxadiazol-3-yl)phenyl)-1H-pyrrole-3-carboxamide] | ≤ 70 | – |
| CS(=O)(=NC(=O)c1ccn(-c2ccc(-c3noc(C(F)(F)F)n3)cc2)c1)c1ccc(F)cc1 (centres unmarked) [Compound 27, N-((4-fluorophenyl)(methyl)(oxo)-λ^6-sulfanylidene)-1-(4-(5-(trifluoromethyl)-1,2,4-oxadiazol-3-yl)phenyl)-1H-pyrrole-3-carboxamide] | ≤ 70 | – |
| COc1ccnc(S(C)(=O)=NC(=O)c2ccn(-c3ccc(-c4noc(C(F)(F)F)n4)cc3)c2)c1 (centres unmarked) [Compound 29, N-((4-methoxypyridin-2-yl)(methyl)(oxo)-λ^6-sulfanylidene)-1-(4-(5-(trifluoromethyl)-1,2,4-oxadiazol-3-yl)phenyl)-1H-pyrrole-3-carboxamide] | ≤ 70 | ≥ 70 |
| CS(C)(=O)=NC(=O)c1ccn(-c2ccc(-c3noc(C(F)(F)F)n3)cc2)c1 [Compound 30, N-(dimethyl(oxo)-λ^6-sulfanylidene)-1-(4-(5-(trifluoromethyl)-1,2,4-oxadiazol-3-yl)phenyl)-1H-pyrrole-3-carboxamide] | ≤ 70 | ≥ 70 |
| FC(F)(F)c1nc(-c2ccc(-n3cnc(CSc4ccccc4)c3)cc2)no1 [Compound 43, 3-(4-(4-((phenylthio)methyl)-1H-imidazol-1-yl)phenyl)-5-(trifluoromethyl)-1,2,4-oxadiazole] | – | ≥ 70 |
